Literature values, collected in patent publication US20100179106A1, “MITOCHONDRIAL COMPOSITIONS AND USES THEREOF” (Gencia Corporation, priority 2007, published 2010).

Assays:
[1] = system: patients with mitochondrial disorders; details: short-term study, creatine supplementation (Tarnopolsky et al. 1997)
[2] = design: dose or concentration left out as unconfirmed; details: dosages as high as (Harris et al. 1992)
brain slice cultures = details: 20 mM creatine, brain slice cultures (Li et al. 2004)

CN(CC(=O)O)C(=N)N [creatine, 2-(carbamimidoyl-methyl-amino) acetic acid]
high-intensity anaerobic and aerobic activities [1]: improved | lower-intensity aerobic activities [1]: no effect | side effects [2]: no reported side effects | mitochondrial activity (brain slice cultures): sufficient to stimulate mitochondrial activity
